Results reported in ChEMBL document CHEMBL1201862, “PubChem BioAssay data set” (2004).
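Cultured in 96-well plates, cells were exposed to test compound for 48 hours across five concentrations. At the GI50, growth is halved.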 Activity calls are given as the source filed them. Rule as the data show it: active = GI50 up to about 1.1 µM and inactive = higher.

Key:
Test in all cases: NCI tumour cell line growth inhibition, 48 h
[1] = test system: UACC-257
[2] = test system: OVCAR-3
[3] = test system: M14
[4] = test system: SF-295
[5] = test system: K562
[6] = test system: NCI-H522
[7] = test system: HT-29
[8] = test system: NCI-H460
[9] = test system: HCT-15
[10] = test system: SNB-75
[11] = test system: NCI-H23
[12] = test system: SN12C
[13] = test system: SNB-19
[14] = test system: OVCAR-8
[15] = test system: SF-268
[16] = test system: SK-MEL-2
[17] = test system: DU-145
[18] = test system: Malme-3M
[19] = test system: RXF 393
[20] = test system: T47D

Compound | GI50 [1] | GI50 [2] | GI50 [3] | GI50 [4] | GI50 [5] | GI50 [6] | GI50 [7] | GI50 [8] | GI50 [9] | GI50 [10] | GI50 [11] | GI50 [12] | GI50 [13] | GI50 [14] | GI50 [15] | GI50 [16] | GI50 [17] | GI50 [18] | GI50 [19] | GI50 [20]
C/C(=N/NS(=O)(=O)c1ccc([N+](=O)[O-])cc1)c1cccc[n+]1[O-] | > 100 µM (inactive) | > 100 µM (inactive) | > 100 µM (inactive) | > 100 µM (inactive) | > 100 µM (inactive) | > 100 µM (inactive) | > 100 µM (inactive) | > 100 µM (inactive) | > 100 µM | > 100 µM (inactive) | > 100 µM (inactive) | > 100 µM (inactive) | > 100 µM (inactive) | > 100 µM (inactive) | > 100 µM (inactive) | – | – | – | – | –
CC(C)c1cccc(C(C)C)c1OS(=O)(=O)NC(=O)OC(C(F)(F)F)C(F)(F)F | 53.7 µM (inactive) | – | 19.2 µM (inactive) | 25.3 µM (inactive) | 24.5 µM (inactive) | 39.5 µM (inactive) | – | 46.7 µM (inactive) | 34.1 µM | – | 45.7 µM (inactive) | 33.2 µM (inactive) | 28.2 µM (inactive) | 46.5 µM (inactive) | 95.7 µM (inactive) | 35.8 µM (inactive) | 33.5 µM (inactive) | > 100 µM (inactive) | – | –
CCCn1cc2c3c(cccc31)C1C=C(C)CN(C)C1C2 (stereo unspecified) | 7.69 µM (inactive) | 20.4 µM (inactive) | – | 23.8 µM (inactive) | 2.56 µM (inactive) | 20.7 µM (inactive) | 12.9 µM (inactive) | 12 µM (inactive) | 17.4 µM | 12 µM (inactive) | 25.5 µM (inactive) | 27.5 µM (inactive) | 27 µM (inactive) | 29.7 µM (inactive) | 29 µM (inactive) | 29.1 µM (inactive) | – | 18.7 µM (inactive) | 18.5 µM (inactive) | –
O=C(NNC(=O)c1nsc2ccccc12)c1ccc(Cl)cc1 | 21.2 µM (inactive) | 17.2 µM (inactive) | 19.5 µM (inactive) | – | 19.1 µM (inactive) | – | 20.3 µM (inactive) | > 100 µM (inactive) | 18.2 µM | 2.93 µM (inactive) | 21.9 µM (inactive) | 17.6 µM (inactive) | 19.1 µM (inactive) | 29.2 µM (inactive) | 17.7 µM (inactive) | 22.3 µM (inactive) | – | – | 14 µM (inactive) | –
Cc1c(N(Cc2ccccc2)Cc2ccccc2)nc(S(C)(=O)=O)nc1S(C)(=O)=O | 2.09 µM (inactive) | 1.86 µM (inactive) | 2.14 µM (inactive) | 17.7 µM (inactive) | 2.08 µM (inactive) | 1.73 µM (inactive) | 1.94 µM (inactive) | 5.14 µM (inactive) | 2.56 µM | – | 1.72 µM (inactive) | 2.08 µM (inactive) | 13.4 µM (inactive) | 1.85 µM (inactive) | 1.95 µM (inactive) | 11.9 µM (inactive) | – | 5.36 µM (inactive) | 1.57 µM (inactive) | –
C=C1C(=O)O[C@@H]2[C@H]3O[C@]3(C)CCC=C(C)CC[C@@H]12 | 14.9 µM (inactive) | 18.4 µM (inactive) | – | 24.8 µM (inactive) | 21.8 µM (inactive) | 5.47 µM (inactive) | 23.6 µM (inactive) | 18.8 µM (inactive) | 14.7 µM | 48.4 µM (inactive) | 20.2 µM (inactive) | 22.9 µM (inactive) | 63.7 µM (inactive) | 16.7 µM (inactive) | 23.7 µM (inactive) | 16.2 µM (inactive) | – | 13.4 µM (inactive) | 12.2 µM (inactive) | –
C=CS(=O)(=O)CCN1CC1 | > 10 µM (inactive) | > 10 µM (inactive) | > 10 µM (inactive) | > 10 µM (inactive) | > 10 µM (inactive) | > 10 µM (inactive) | > 10 µM (inactive) | – | > 10 µM | > 10 µM (inactive) | > 10 µM (inactive) | > 10 µM (inactive) | – | > 10 µM (inactive) | > 10 µM (inactive) | – | > 10 µM (inactive) | > 10 µM (inactive) | – | > 10 µM (inactive)
CCOC(=O)/C(=C/c1cn(C(C)=O)c2ccccc12)P(=O)(OC)OC | 19.1 µM (inactive) | 20.3 µM (inactive) | 52.4 µM (inactive) | 44.4 µM (inactive) | 25.6 µM (inactive) | 30.5 µM (inactive) | 40.5 µM (inactive) | 24.4 µM (inactive) | 29.7 µM | 16 µM (inactive) | 33.8 µM (inactive) | 31.6 µM (inactive) | – | 46.7 µM (inactive) | – | 31.1 µM (inactive) | 22.2 µM (inactive) | – | – | 13.7 µM (inactive)
CC(C)(C)C(=O)OCC1OC(N=[N+]=[N-])C(OC(=O)C(C)(C)C)C(OC(=O)C(C)(C)C)C1OC(=O)C(C)(C)C (stereo unspecified) | 82.2 µM (inactive) | > 100 µM (inactive) | > 100 µM (inactive) | > 100 µM (inactive) | > 100 µM (inactive) | > 100 µM (inactive) | > 100 µM (inactive) | > 100 µM (inactive) | > 100 µM | > 100 µM (inactive) | > 100 µM (inactive) | > 100 µM (inactive) | > 100 µM (inactive) | > 100 µM (inactive) | > 100 µM (inactive) | > 100 µM (inactive) | – | > 100 µM (inactive) | > 100 µM (inactive) | –
